# Patent US10750743B2, “Pyridazinone herbicides” (E.I. DU PONT DE NEMOURS AND COMPANY, priority 2015, dated 2020)
# Assays:
# Type in all cases: in vivo
# [1] = tested on: barnyardgrass (Echinochloa crus-galli); assay: Test A preemergence, directed soil spray, visual injury rating; conditions: 0 is no effect, 100 is complete control
# How it was run: (§1)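 Injury ratings, 0 (no effect) to 100 (complete control), were scored visually versus untreated plants roughly 10 d after treatment under greenhouse conditions. Treatments used surfactant-containing solvent formulations, sprayed onto soil preemergence or onto one- to two-leaf seedlings (2-10 cm) postemergence, grown in a loam-sand mix.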
# [2] = tested on: foxtail, giant (giant foxtail, Setaria faberii); assay: as above; conditions: 0 is no effect, 100 is complete control
# How it was run: as §1
# [3] = tested on: kochia (Kochia scoparia); assay: as above; conditions: 0 is no effect, 100 is complete control
# How it was run: as §1
# [4] = tested on: pigweed (Amaranthus retroflexus); assay: as above; conditions: 0 is no effect, 100 is complete control
# How it was run: as §1
# [5] = tested on: ragweed (common ragweed, Ambrosia elatior); assay: as above; conditions: 0 is no effect, 100 is complete control
# How it was run: as §1
# [6] = tested on: ryegrass, It. (Italian ryegrass, Lolium multiflorum); assay: as above; conditions: 0 is no effect, 100 is complete control
# How it was run: as §1
# [7] = tested on: barnyardgrass (Echinochloa crus-galli); assay: Test B flooded paddy test, visual rating; conditions: Flood, 250 g ai/ha, applied to paddy water, rated after 13 to 15 d
# How it was run: (§2)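 Ratings use a 0-100 visual scale, where 100 is complete control, and compare treated plants with controls after 13 to 15 d of greenhouse growth. Compound went straight into paddy water kept 3 cm over the soil surface, applied to seedlings at the 2-leaf stage.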
# [8] = tested on: ducksalad (Heteranthera limosa); assay: Test B flooded paddy test, visual rating; conditions: Flood, 250 g ai/ha, applied to paddy water, rated after 13 to 15 d
# How it was run: as §2
# [9] = tested on: rice (Oryza sativa); assay: Test B flooded paddy test, visual rating; conditions: Flood, 250 g ai/ha, applied to paddy water, rated after 13 to 15 d
# How it was run: as §2
# [10] = tested on: sedge, umbrella (small-flower umbrella sedge, Cyperus difformis); assay: Test B flooded paddy test, visual rating; conditions: Flood, 250 g ai/ha, applied to paddy water, rated after 13 to 15 d
# How it was run: as §2
# [11] = tested on: barnyardgrass (Echinochloa crus-galli); assay: Test A postemergence application, visual injury rating; conditions: 0 to 100 scale, 0 no effect, 100 complete control
# How it was run: as §1
# [12] = tested on: blackgrass (Alopecurus myosuroides); assay: as above; conditions: 0 to 100 scale, 0 no effect, 100 complete control
# How it was run: as §1
# [13] = tested on: corn (Zea mays); assay: as above; conditions: 0 to 100 scale, 0 no effect, 100 complete control
# How it was run: as §1
# [14] = tested on: foxtail, giant (giant foxtail, Setaria faberii); assay: as above; conditions: 0 to 100 scale, 0 no effect, 100 complete control
# How it was run: as §1
# [15] = tested on: galium (catchweed bedstraw, Galium aparine); assay: as above; conditions: 0 to 100 scale, 0 no effect, 100 complete control
# How it was run: as §1
# [16] = tested on: kochia (Kochia scoparia); assay: as above; conditions: 0 to 100 scale, 0 no effect, 100 complete control
# How it was run: as §1
# [17] = tested on: pigweed (Amaranthus retroflexus); assay: as above; conditions: 0 to 100 scale, 0 no effect, 100 complete control
# How it was run: as §1
# [18] = tested on: ragweed (common ragweed, Ambrosia elatior); assay: as above; conditions: 0 to 100 scale, 0 no effect, 100 complete control
# How it was run: as §1
# [19] = tested on: ryegrass, It. (Italian ryegrass, Lolium multiflorum); assay: as above; conditions: 0 to 100 scale, 0 no effect, 100 complete control
# How it was run: as §1
# [20] = tested on: wheat (Triticum aestivum); assay: as above; conditions: 0 to 100 scale, 0 no effect, 100 complete control
# How it was run: as §1
Structure (SMILES),"Plant response rating (0 to 100 scale), Barnyardgrass ([1]; 125 g ai/ha)","Plant response rating (0 to 100 scale), Foxtail, Giant ([2]; 125 g ai/ha)","Plant response rating (0 to 100 scale), Kochia ([3]; 125 g ai/ha)","Plant response rating (0 to 100 scale), Pigweed ([4]; 125 g ai/ha)","Plant response rating (0 to 100 scale), Ragweed ([5]; 125 g ai/ha)","Plant response rating (0 to 100 scale), Ryegrass, It. ([6]; 125 g ai/ha)","Barnyardgrass plant response rating (0 to 100 scale, 0 is no effect, 100 is complete control) [7]","Ducksalad plant response rating (0 to 100 scale, 0 is no effect, 100 is complete control) [8]","Rice plant response rating (0 to 100 scale, 0 is no effect, 100 is complete control) [9]","Sedge, Umbrella plant response rating (0 to 100 scale, 0 is no effect, 100 is complete control) [10]",Barnyardgrass plant response rating ([11]; 125 g ai/ha),Blackgrass plant response rating ([12]; 125 g ai/ha),Corn plant response rating ([13]; 125 g ai/ha),"Foxtail, Giant plant response rating ([14]; 125 g ai/ha)",Galium plant response rating ([15]; 125 g ai/ha),Kochia plant response rating ([16]; 125 g ai/ha),Pigweed plant response rating ([17]; 125 g ai/ha),Ragweed plant response rating ([18]; 125 g ai/ha),"Ryegrass, It. plant response rating ([19]; 125 g ai/ha)",Wheat plant response rating ([20]; 125 g ai/ha),also measured
Cc1nn(C)c(=O)c(-c2ccc(Cl)c3sccc23)c1OC(=O)c1ccccc1 [Compound 57],0,0,0,0,0,10,0,0,0,0,0,0,0,0,0,0,0,0,0,0,"Plant response rating (0 to 100 scale), Barnyardgrass ([1]; 31 g ai/ha): 0; Plant response rating (0 to 100 scale), Foxtail, Giant ([2]; 31 g ai/ha): 0; Plant response rating (0 to 100 scale), Kochia ([3]; 31 g ai/ha): 50; Plant response rating (0 to 100 scale), Pigweed ([4]; 31 g ai/ha): 0; Plant response rating (0 to 100 scale), Ragweed ([5]; 31 g ai/ha): 0; Plant response rating (0 to 100 scale), Ryegrass, It. ([6]; 31 g ai/ha): 0; Barnyardgrass plant response rating ([11]; 31 g ai/ha): 0; Blackgrass plant response rating ([12]; 31 g ai/ha): 0; Corn plant response rating ([13]; 31 g ai/ha): 0; Foxtail, Giant plant response rating ([14]; 31 g ai/ha): 0; Galium plant response rating ([15]; 31 g ai/ha): 0; Kochia plant response rating ([16]; 31 g ai/ha): 0; Pigweed plant response rating ([17]; 31 g ai/ha): 0; Ragweed plant response rating ([18]; 31 g ai/ha): 0; Ryegrass, It. plant response rating ([19]; 31 g ai/ha): 0; Wheat plant response rating ([20]; 31 g ai/ha): 0"
CCOC(=O)Oc1c(C)nn(C)c(=O)c1-c1c(CC)sc2ncccc12 [Compound 19],0,0,0,0,0,0,0,0,0,0,0,0,0,0,0,0,10,0,0,0,"Plant response rating (0 to 100 scale), Barnyardgrass ([1]; 500 g ai/ha): 0; Plant response rating (0 to 100 scale), Foxtail, Giant ([2]; 500 g ai/ha): 0; Plant response rating (0 to 100 scale), Kochia ([3]; 500 g ai/ha): 0; Plant response rating (0 to 100 scale), Pigweed ([4]; 500 g ai/ha): 20; Plant response rating (0 to 100 scale), Ragweed ([5]; 500 g ai/ha): 0; Plant response rating (0 to 100 scale), Ryegrass, It. ([6]; 500 g ai/ha): 0; Barnyardgrass plant response rating ([11]; 500 g ai/ha): 0; Blackgrass plant response rating ([12]; 500 g ai/ha): 0; Corn plant response rating ([13]; 500 g ai/ha): 0; Foxtail, Giant plant response rating ([14]; 500 g ai/ha): 0; Galium plant response rating ([15]; 500 g ai/ha): 20; Kochia plant response rating ([16]; 500 g ai/ha): 0; Pigweed plant response rating ([17]; 500 g ai/ha): 30; Ragweed plant response rating ([18]; 500 g ai/ha): 0; Ryegrass, It. plant response rating ([19]; 500 g ai/ha): 0; Wheat plant response rating ([20]; 500 g ai/ha): 0"
CC(=O)Oc1c(C)nn(C)c(=O)c1-c1ccc(Cl)c2cc(C)oc12 [Compound 42],60,50,0,40,40,90,0,80,0,60,40,50,10,30,90,0,50,10,90,0,"Plant response rating (0 to 100 scale), Barnyardgrass ([1]; 31 g ai/ha): 10; Plant response rating (0 to 100 scale), Foxtail, Giant ([2]; 31 g ai/ha): 10; Plant response rating (0 to 100 scale), Kochia ([3]; 31 g ai/ha): 0; Plant response rating (0 to 100 scale), Pigweed ([4]; 31 g ai/ha): 0; Plant response rating (0 to 100 scale), Ragweed ([5]; 31 g ai/ha): 30; Plant response rating (0 to 100 scale), Ryegrass, It. ([6]; 31 g ai/ha): 60; Barnyardgrass plant response rating ([11]; 31 g ai/ha): 10; Blackgrass plant response rating ([12]; 31 g ai/ha): 20; Corn plant response rating ([13]; 31 g ai/ha): 0; Foxtail, Giant plant response rating ([14]; 31 g ai/ha): 10; Galium plant response rating ([15]; 31 g ai/ha): 90; Kochia plant response rating ([16]; 31 g ai/ha): 0; Pigweed plant response rating ([17]; 31 g ai/ha): 30; Ragweed plant response rating ([18]; 31 g ai/ha): 20; Ryegrass, It. plant response rating ([19]; 31 g ai/ha): 70; Wheat plant response rating ([20]; 31 g ai/ha): 0"
